Measurements as given in the NIST ThermoML archive (doi:10.1021/je501133u).

Assay: xn = mol fraction of the nth substance listed
Conditions: 100 kPa, Liquid; for viscosity: Falling or rolling sphere viscometry; for mass density: Vibrating tube method

CCCCCCCO [heptan-1-ol] + CCO
Conditions	mass density [kg/m3]	viscosity [mPa·s]
293.15 K, x2 = 0	822.3	7.15
293.15 K, x2 = 0.1	820.6	6.21
293.15 K, x2 = 0.2004	818.7	5.36
293.15 K, x2 = 0.3007	816.9	4.63
293.15 K, x2 = 0.3995	814.7	4.04
293.15 K, x2 = 0.5007	812.1	3.41
293.15 K, x2 = 0.5995	809	2.85
293.15 K, x2 = 0.7001	805.5	2.34
293.15 K, x2 = 0.8002	801.4	1.9
293.15 K, x2 = 0.9003	796.5	1.52
298.15 K, x2 = 0	818.8	6.07
298.15 K, x2 = 0.1	817.1	5.29
298.15 K, x2 = 0.2004	815.1	4.59
298.15 K, x2 = 0.3007	813.3	4
298.15 K, x2 = 0.3995	811.1	3.51
298.15 K, x2 = 0.5007	808.4	2.99
298.15 K, x2 = 0.5995	805.3	2.52
298.15 K, x2 = 0.7001	801.6	2.09
298.15 K, x2 = 0.8002	797.4	1.71
298.15 K, x2 = 0.9003	792.4	1.38
303.15 K, x2 = 0	815.3	5.18
303.15 K, x2 = 0.1	813.6	4.54
303.15 K, x2 = 0.2004	811.6	3.96
303.15 K, x2 = 0.3007	809.7	3.48
303.15 K, x2 = 0.3995	807.4	3.07
303.15 K, x2 = 0.5007	804.7	2.64
303.15 K, x2 = 0.5995	801.5	2.23
303.15 K, x2 = 0.7001	797.8	1.87
303.15 K, x2 = 0.8002	793.5	1.54
303.15 K, x2 = 0.9003	788.3	1.25
308.15 K, x2 = 0	811.8	4.44
308.15 K, x2 = 0.1	810	3.91
308.15 K, x2 = 0.2004	808	3.44
308.15 K, x2 = 0.3007	806	3.03
308.15 K, x2 = 0.3995	803.8	2.7
308.15 K, x2 = 0.5007	800.9	2.33
308.15 K, x2 = 0.5995	797.7	1.99
308.15 K, x2 = 0.7001	793.9	1.67
308.15 K, x2 = 0.8002	789.5	1.39
308.15 K, x2 = 0.9003	784.2	1.13
313.15 K, x2 = 0	808.2	3.83
313.15 K, x2 = 0.1	806.4	3.39
313.15 K, x2 = 0.2004	804.4	3
313.15 K, x2 = 0.3007	802.4	2.66
313.15 K, x2 = 0.3995	800.1	2.38
313.15 K, x2 = 0.5007	797.2	2.07
313.15 K, x2 = 0.5995	793.8	1.78
313.15 K, x2 = 0.7001	790	1.5
313.15 K, x2 = 0.8002	785.4	1.26
313.15 K, x2 = 0.9003	780	1.03
318.15 K, x2 = 0	804.6	3.33
318.15 K, x2 = 0.1	802.8	2.96
318.15 K, x2 = 0.2004	800.7	2.63
318.15 K, x2 = 0.3007	798.7	2.35
318.15 K, x2 = 0.3995	796.3	2.11
318.15 K, x2 = 0.5007	793.4	1.85
318.15 K, x2 = 0.5995	790	1.6
318.15 K, x2 = 0.7001	786	1.36
318.15 K, x2 = 0.8002	781.4	1.14
318.15 K, x2 = 0.9003	775.8	0.94
323.15 K, x2 = 0	801	2.89
323.15 K, x2 = 0.1	799.1	2.59
323.15 K, x2 = 0.2004	797	2.31
323.15 K, x2 = 0.3007	794.9	2.08
323.15 K, x2 = 0.3995	792.5	1.88
323.15 K, x2 = 0.5007	789.5	1.65
323.15 K, x2 = 0.5995	786	1.44
323.15 K, x2 = 0.7001	782	1.23
323.15 K, x2 = 0.8002	777.2	1.04
323.15 K, x2 = 0.9003	771.5	0.87
328.15 K, x2 = 0	797.4	2.54
328.15 K, x2 = 0.1	795.4	2.28
328.15 K, x2 = 0.2004	793.3	2.05
328.15 K, x2 = 0.3007	791.2	1.84
328.15 K, x2 = 0.3995	788.7	1.68
328.15 K, x2 = 0.5007	785.6	1.48
328.15 K, x2 = 0.5995	782.1	1.29
328.15 K, x2 = 0.7001	777.9	1.11
328.15 K, x2 = 0.8002	773	0.94
328.15 K, x2 = 0.9003	767.1	0.79

CCCCCCO [hexan-1-ol] + CCO
Conditions	mass density [kg/m3]	viscosity [mPa·s]
293.15 K, x2 = 0	818.9	5.35
293.15 K, x2 = 0.1001	816.7	4.67
293.15 K, x2 = 0.2003	815.1	4.15
293.15 K, x2 = 0.3004	813.3	3.66
293.15 K, x2 = 0.4006	811.6	3.19
293.15 K, x2 = 0.4998	808.7	2.76
293.15 K, x2 = 0.6009	806	2.41
293.15 K, x2 = 0.7001	802.9	2.03
293.15 K, x2 = 0.7995	799.2	1.71
293.15 K, x2 = 0.9001	794.9	1.43
298.15 K, x2 = 0	815.3	4.56
298.15 K, x2 = 0.1001	813.1	4.02
298.15 K, x2 = 0.2003	811.5	3.6
298.15 K, x2 = 0.3004	809.7	3.19
298.15 K, x2 = 0.4006	807.9	2.8
298.15 K, x2 = 0.4998	805	2.44
298.15 K, x2 = 0.6009	802.2	2.14
298.15 K, x2 = 0.7001	798.9	1.81
298.15 K, x2 = 0.7995	795.2	1.54
298.15 K, x2 = 0.9001	790.8	1.29
303.15 K, x2 = 0	811.7	3.9
303.15 K, x2 = 0.1001	809.5	3.48
303.15 K, x2 = 0.2003	807.8	3.14
303.15 K, x2 = 0.3004	806	2.8
303.15 K, x2 = 0.4006	804.1	2.47
303.15 K, x2 = 0.4998	801.2	2.17
303.15 K, x2 = 0.6009	798.4	1.91
303.15 K, x2 = 0.7001	795	1.63
303.15 K, x2 = 0.7995	791.2	1.39
303.15 K, x2 = 0.9001	786.6	1.17
308.15 K, x2 = 0	808.1	3.36
308.15 K, x2 = 0.1001	805.9	3.03
308.15 K, x2 = 0.2003	804.2	2.75
308.15 K, x2 = 0.3004	802.3	2.47
308.15 K, x2 = 0.4006	800.4	2.19
308.15 K, x2 = 0.4998	797.4	1.93
308.15 K, x2 = 0.6009	794.5	1.71
308.15 K, x2 = 0.7001	791.1	1.47
308.15 K, x2 = 0.7995	787.1	1.26
308.15 K, x2 = 0.9001	782.5	1.07
313.15 K, x2 = 0	804.5	2.91
313.15 K, x2 = 0.1001	802.2	2.65
313.15 K, x2 = 0.2003	800.5	2.42
313.15 K, x2 = 0.3004	798.5	2.18
313.15 K, x2 = 0.4006	796.6	1.94
313.15 K, x2 = 0.4998	793.6	1.73
313.15 K, x2 = 0.6009	790.6	1.54
313.15 K, x2 = 0.7001	787.1	1.32
313.15 K, x2 = 0.7995	783	1.14
313.15 K, x2 = 0.9001	778.2	0.97
318.15 K, x2 = 0	800.8	2.54
318.15 K, x2 = 0.1001	798.5	2.33
318.15 K, x2 = 0.2003	796.7	2.14
318.15 K, x2 = 0.3004	794.8	1.94
318.15 K, x2 = 0.4006	792.7	1.73
318.15 K, x2 = 0.4998	789.7	1.55
318.15 K, x2 = 0.6009	786.6	1.39
318.15 K, x2 = 0.7001	783	1.2
318.15 K, x2 = 0.7995	778.9	1.04
318.15 K, x2 = 0.9001	774	0.89
323.15 K, x2 = 0	797.1	2.23
323.15 K, x2 = 0.1001	794.8	2.06
323.15 K, x2 = 0.2003	793	1.9
323.15 K, x2 = 0.3004	790.9	1.73
323.15 K, x2 = 0.4006	788.9	1.55
323.15 K, x2 = 0.4998	785.7	1.39
323.15 K, x2 = 0.6009	782.6	1.25
323.15 K, x2 = 0.7001	779	1.09
323.15 K, x2 = 0.7995	774.7	0.94
323.15 K, x2 = 0.9001	769.7	0.81
328.15 K, x2 = 0	793.4	1.97
328.15 K, x2 = 0.1001	791	1.82
328.15 K, x2 = 0.2003	789.2	1.69
328.15 K, x2 = 0.3004	787.1	1.54
328.15 K, x2 = 0.4006	784.9	1.39
328.15 K, x2 = 0.4998	781.8	1.25
328.15 K, x2 = 0.6009	778.6	1.13
328.15 K, x2 = 0.7001	774.8	0.99
328.15 K, x2 = 0.7995	770.4	0.86
328.15 K, x2 = 0.9001	765.3	0.75
